Patent publication US6620828B2, “Thiazole compounds and pharmaceutical compositions for inhibiting protein kinases and methods for their use” (Agouron Pharmaceuticals, Inc., priority 1999, dated 2003)
“And” between values parts separate entries of the source, which are not always exact repeats. Identical values can stand only once.

How the values were obtained:
[1] = biological target: T1, CHK1 (Homo sapiens, UniProt O14757); assay: CHK1 high-throughput screening; assay type: biochemical; settings: for inhibition at 20 µM: read-out: % inhibition @ 20 μM, Table 4, repeated entries per example; for % inhibition @ 20 μM: Table 4, repeated entries per example
T1 sequence (O14757 1-476): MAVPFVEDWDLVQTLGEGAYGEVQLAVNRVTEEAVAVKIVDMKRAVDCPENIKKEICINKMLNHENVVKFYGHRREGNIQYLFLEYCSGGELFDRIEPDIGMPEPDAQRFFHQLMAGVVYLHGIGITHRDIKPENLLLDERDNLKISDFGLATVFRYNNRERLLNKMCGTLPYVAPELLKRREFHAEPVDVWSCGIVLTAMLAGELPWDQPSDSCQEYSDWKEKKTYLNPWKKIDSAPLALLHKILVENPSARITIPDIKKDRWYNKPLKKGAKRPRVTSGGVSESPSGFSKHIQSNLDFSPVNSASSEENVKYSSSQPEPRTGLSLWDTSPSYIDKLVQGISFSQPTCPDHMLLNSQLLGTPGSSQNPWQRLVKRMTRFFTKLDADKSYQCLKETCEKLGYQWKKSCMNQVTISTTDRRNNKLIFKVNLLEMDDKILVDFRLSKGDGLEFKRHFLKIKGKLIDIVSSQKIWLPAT

[2] = biological target: T2, phosphorylated VEGF-R2Δ50 (FLVK-P) (Homo sapiens, UniProt P35968, DEL940-989/E990V); assay: VEGF-R2 coupled spectrophotometric (FLVK-P) assay; assay type: biochemical; settings: Table 1; for Ki: spectrophotometric assay
T2 construct: VEGF-R2Δ50 contains residues 806-939 and 990-1171; made in house; host or cells: baculovirus/insect cells
T2 sequence (P35968 with tags, fused parts or gaps DEL940-989/E990V limits assumed): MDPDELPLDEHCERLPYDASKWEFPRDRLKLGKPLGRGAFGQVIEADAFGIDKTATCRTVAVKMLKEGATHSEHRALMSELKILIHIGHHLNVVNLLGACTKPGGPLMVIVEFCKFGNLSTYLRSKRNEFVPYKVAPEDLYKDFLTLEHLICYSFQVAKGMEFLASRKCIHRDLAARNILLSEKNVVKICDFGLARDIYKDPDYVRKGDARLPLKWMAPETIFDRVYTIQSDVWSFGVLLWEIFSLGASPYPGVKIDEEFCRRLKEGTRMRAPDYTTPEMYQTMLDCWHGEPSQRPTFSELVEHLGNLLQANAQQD
In short: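 Baculovirus-expressed human VEGF-R2Δ50 (residues 806-939/990-1171, E990V) was autophosphorylated with 3 mM ATP, 40 mM MgCl2 for 2 h at 4° C. ADP formation was coupled via PK/LDH to NADH oxidation, read at 340 nm, with 5.1 mM poly(E4Y1), 1 mM ATP, 25 mM MgCl2, Hepes pH 7.5. Ki came from activity across compound concentrations.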

[3] = biological target: CDK2/Cyclin A complex (Homo sapiens, UniProt P24941); assay: CDK2/Cyclin A assay; assay type: biochemical; settings: Table 2
In short: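 Radiometric assay: 150 nM CDK2/cyclin A (insect-cell CDK2, truncated cyclin A) phosphorylates His-tagged Rb fragment (residues 386-928) with 25 μM ATP plus [32P]ATP, pH 7.4 HEPES, 2% DMSO, 30 °C for 20 min. Filter-captured product counted by phosphorimager; apparent Ki from competitive or tight-binding inhibition fits.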

[4] = biological target: T3, CDK4/Cyclin D3 complex (Homo sapiens, UniProt P11802); assay: CDK4/Cyclin D assay; assay type: biochemical; settings: Table 2
T3 construct: made in house; host or cells: insect cells co-infected with baculovirus vectors
T3 sequence (P11802 whole entry): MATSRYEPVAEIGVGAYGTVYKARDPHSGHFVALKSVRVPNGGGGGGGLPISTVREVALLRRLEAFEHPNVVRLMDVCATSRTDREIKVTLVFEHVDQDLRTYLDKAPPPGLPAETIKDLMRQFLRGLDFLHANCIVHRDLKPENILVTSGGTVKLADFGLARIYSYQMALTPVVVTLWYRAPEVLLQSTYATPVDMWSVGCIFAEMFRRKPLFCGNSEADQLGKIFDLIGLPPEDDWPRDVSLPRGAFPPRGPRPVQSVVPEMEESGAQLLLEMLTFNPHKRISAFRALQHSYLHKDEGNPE
T3 sequence (P30281 whole entry partner): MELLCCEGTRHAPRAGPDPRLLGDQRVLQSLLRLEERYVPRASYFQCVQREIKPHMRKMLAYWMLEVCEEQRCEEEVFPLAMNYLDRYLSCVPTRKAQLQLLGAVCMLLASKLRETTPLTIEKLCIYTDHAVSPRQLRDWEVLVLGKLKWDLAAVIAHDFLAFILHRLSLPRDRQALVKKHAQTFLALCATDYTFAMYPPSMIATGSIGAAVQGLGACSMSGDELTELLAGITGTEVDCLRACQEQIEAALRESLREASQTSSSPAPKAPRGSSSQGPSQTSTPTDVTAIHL
In short: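 Insect-cell-expressed CDK4/cyclin D3 (50 nM) phosphorylating His-tagged Rb fragment (residues 386-928) with 25 μM [^32P]ATP in HEPES pH 7.4, MgCl2, 2% DMSO; 20 min at 30 °C, EDTA stop. Filter-captured 32P by phosphorimager; apparent Ki from competitive or tight-binding inhibition fits.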

[5] = biological target: T4, unphosphorylated VEGF-R2Δ50 (FLVK) (Homo sapiens, UniProt P35968, DEL940-989/E990V); assay: VEGF-R2 coupled spectrophotometric assay, unphosphorylated enzyme (FLVK); assay type: biochemical; settings: Table 1
T4 construct: VEGF-R2Δ50 contains residues 806-939 and 990-1171; made in house; host or cells: baculovirus/insect cells
T4 sequence (P35968 with tags, fused parts or gaps DEL940-989/E990V limits assumed): as the sequence (P35968 with tags, fused parts or gaps DEL940-989/E990V limits assumed) above
In short: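 Unphosphorylated VEGF-R2Δ50 (5 to 40 nM) with 20 mM poly(E4Y1), 3 mM ATP, 60 mM MgCl2, 2 mM MnCl2 in 200 mM Hepes pH 7.5. ADP production coupled via PK/LDH to NADH oxidation, read at 340 nm. Ki from activity at varying compound concentrations.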

[6] = test system: human umbilical vein endothelial cells (HUVEC); assay: HUVEC proliferation assay; assay type: cell-based; settings: Homo sapiens, HUVEC, Table 1
In short: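 Exponentially growing HUVEC were serum-starved 24 h (F12K + 1% FBS), pre-treated 1 h with compound (0.1% DMSO final), then stimulated with 6 ng/ml VEGF. Proliferation was read 72 h later by MTT reduction (A595). IC50 came from seven 0.5-log concentrations in triplicate; screens gave % inhibition relative to VEGF-only and starved wells.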

[7] = test system: lung cancer cells (line MV522); assay: Cancer cell proliferation (MV522) assay; assay type: cell-based; settings: MV522, Table 1
Method: Cancer Cell Proliferation (MV522) Assay
The protocol for assessing cellular proliferation in cancer cells is similar to that used for assessments in HUVEC cells. Two thousand lung cancer cells (line MV522, acquired from American Tissue Cultural Collection) were seeded in growth media (RPMI1640 medium supplemented with 2 mM glutamine and 10% FBS). Cells are allowed to attach for 1 day prior to addition of test agents and/or vehicles. Cells are treated simultaneously with the same test agents used in the HUVEC assay. Cellular proliferation is quantified by MTT dye reduction assay 72 hours after exposure to test agents. The total length of the assay is 4 days vs. 5 for HUVEC cells because MV522 cells are not exposed to starvation medium.

| inhibition at 20 µM [1] | Ki [2] | Ki [5] | IC50 [7] | SMILES | IC50 [6] | further results |
| --- | --- | --- | --- | --- | --- | --- |
| -2.9% | 84 nM | – | – | Nc1nc(Nc2ccc([N+](=O)[O-])cc2)sc1-c1nc(-c2cccc(NC(=O)c3ccccc3)c2)cs1 [A(56), 4-(4′-Amino-4-(3-benzamidophenyl)-[2,5′]bithiazolyl-2′-ylamino)-nitrophenyl] | – | – |
| -7.2% | – | – | – | CC(=O)c1ccc(Nc2nc(N)c(-c3nc(-c4cccc(NC(=O)c5ccccc5)c4)cs3)s2)cc1 [A(58), 4-(4′-Amino-4-(3-benzamidophenyl)-[2,5′]bithiazolyl-2′-ylamino)-acetophenone] | – | – |
| 4.8% | – | – | – | Nc1nc(Nc2ccc(S(N)(=O)=O)cc2)sc1-c1nc(-c2ccc(Cl)c(O)c2)cs1 [A(69), 4-[4′-Amino-4-(4-chloro-3-hydroxy-phenyl)-[2,5′]bithiazolyl-2′-ylamino]-benzenesulfonamide] | – | Ki [3]: 4000 nM; Ki [4]: 7200 nM; % inhibition @ 20 μM [1]: 2.7% and 3.8% |
| 3.8% | – | – | – | Nc1nc(Nc2ccc(S(N)(=O)=O)cc2)sc1-c1nc(-c2ccc(-c3ccccc3)cc2)cs1 [A(70), 4-(4′-Amino-4-biphenyl-4-yl-[2,5′]bithiazolyl-2′-ylamino)-benzenesulfonamide] | – | inhibition at 100 µM ([4]; at 100 (printed 100 or 100 μM)): < 0% |
| – | 2 nM | 2.6 nM | > 10000 nM | COc1cc(Nc2nc(N)c(-c3nc(-c4cccc(NC(=O)OCc5ccccc5)c4)cs3)s2)cc(OC)c1OC [D(12), {3-[4′-Amino-2′-(3,4,5-trimethoxy-phenylamino)-[2,5′]bithiazolyl-4-yl]-phenyl}-carbamic acid benzyl ester] | 160 nM | – |
| – | 1.8 nM | 2 nM | > 10000 nM | COc1cc(Nc2nc(N)c(-c3nc(-c4cccc(NC(=O)c5ccccc5)c4)cs3)s2)cc(OC)c1OC [D(24), N-{3-[4′-Amino-2′-(3,4,5-trimethoxy-phenylamino)-[2,5′]bithiazolyl-4-yl]-phenyl}-benzamide] | 110 nM | – |
| – | 3.8 nM | 3.6 nM | > 10000 nM | COc1cc(Nc2nc(N)c(-c3nc(-c4cccc(NC(=O)c5sc(C)nc5C)c4)cs3)s2)cc(OC)c1OC [D(33), 2,4-Dimethyl-thiazole-5-carboxylic acid {3-[4′-amino-2′-(3,4,5-trimethoxy-phenylamino)-[2,5′]bithiazolyl-4-yl]-phenyl}-amide] | 120 nM | – |
| – | 1.1 nM | 1.4 nM | > 10000 nM | COc1cc(Nc2nc(N)c(-c3nc(-c4cccc(NC(=O)c5cccc(Cl)c5)c4)cs3)s2)cc(OC)c1OC [D(40), N-{3-[4′-Amino-2′-(3,4,5-trimethoxy-phenylamino)-[2,5′]bithiazolyl-4-yl]-phenyl}-3-chloro-benzamide] | 39 nM | – |
| – | 0.34 nM | 0.77 nM | > 10000 nM | COc1cc(Nc2nc(N)c(-c3nc(-c4cccc(NC(=O)c5ncc(C)s5)c4)cs3)s2)cc(OC)c1OC [D(42), 5-Methyl-thiazole-2-carboxylic acid {3-[4′-amino-2′-(3,4,5-trimethoxy-phenylamino)-[2,5′]bithiazolyl-4-yl]-phenyl}-amide] | 53 nM | – |
| – | 5.4 nM | 2.1 nM | > 10000 nM | COc1cc(Nc2nc(N)c(-c3nc(-c4cccc(NC(=O)OCc5ccccc5)c4)no3)s2)cc(OC)c1OC [D(44), 3-[3-Benzyloxycarboxy-aminophenyl]-5-[2-[(3,4,5-trimethoxyphenyl)amino]-4-amino-5-thiazolyl]-1,2,4-oxadiazole] | 373 nM | – |
| – | 1.1 nM | 0.34 nM | > 10000 nM | COc1cc(Nc2nc(N)c(-c3nc(-c4cccc(NC(=O)c5cccc(C)c5)c4)no3)s2)cc(OC)c1OC [D(47), 3-[3-(3-Methylbenzamido)phenyl]-5-[2-[(3,4,5-trimethoxyphenyl)amino]-4-amino-5-thiazolyl]-1,2,4-oxadiazole] | 13 nM | – |

The remaining lines, values behind:

| SMILES | inhibition at 20 µM [1] | Ki [2] | Ki [5] | IC50 [7] | IC50 [6] | further results |
| --- | --- | --- | --- | --- | --- | --- |
| COc1cc(Nc2nc(N)c(-c3nc(-c4cccc(C(=O)NCCc5ccccc5)c4)cs3)s2)cc(OC)c1OC [A(31), 3-[4′-Amino-2′-(3,4,5-trimethoxy-phenylamino)-[2,5′]bithiazolyl-4-yl]-N-phenethyl-benzamide] | 2.5% | – | – | – | – | – |
| COc1cc(Nc2nc(N)c(-c3nc(-c4cccc(C(=O)NCc5ccccc5)c4)cs3)s2)cc(OC)c1OC [A(32), 3-[4′-Amino-2′-(3,4,5-trimethoxy-phenylamino)-[2,5′]bithiazolyl-4-yl]-N-benzyl-benzamide] | -3.8% | – | – | – | – | – |
| CCN(CC)CCCNc1nc(N)c(-c2nc(-c3cccc(NC(=O)c4ccccc4)c3)cs2)s1 [A(37), N-{3-[4′-Amino-2′-(3-diethylamino-propylamino)-[2,5′]bithiazolyl-4-yl]-phenyl}-benzamide] | 16% | – | – | – | – | – |
| Nc1nc(NCCc2ccccc2)sc1-c1nc(-c2cccc(NC(=O)c3ccccc3)c2)cs1 [A(38), N-[3-(4′-Amino-2′-phenethylamino-[2,5′]bithiazolyl-4-yl)-phenyl]-benzamide] | 9.1% | – | – | – | – | FLVK-P % inhibition @ 0.05 ([2]; at 0.05, concentration unit not printed (head nM)): 7% @; % inhibition @ 20 μM [1]: 9.8% |
| COC(=O)c1cccc(Nc2nc(N)c(-c3nc(-c4cccc(NC(=O)c5ccccc5)c4)cs3)s2)c1 [A(39), 3-[4′-Amino-4-(3-benzoylaminophenyl)-[2,5′]bithiazolyl-2′-ylamino]-benzoic acid methyl ester] | 2.2% | – | – | – | – | – |
| Nc1nc(Nc2ccc3c(c2)OCO3)sc1-c1nc(-c2cccc(NC(=O)c3ccccc3)c2)cs1 [A(41), N-{3-[4′-Amino-2′-(benzo[1,3]dioxol-5-ylamino)-[2,5′]bithiazolyl-4-yl]-phenyl}-benzamide] | 3.8% | – | – | – | – | – |
| Cc1cc(C)cc(Nc2nc(N)c(-c3nc(-c4cccc(NC(=O)c5ccccc5)c4)cs3)s2)c1 [A(42), N-{3-[4′-Amino-2′-(3,5-dimethylphenylamino)-[2,5′]bithiazolyl-4-yl]-phenyl}-benzamide] | -0.1% | 7.3 nM | – | – | – | – |
| Nc1nc(Nc2ccc3c(c2)CCC3)sc1-c1nc(-c2cccc(NC(=O)c3ccccc3)c2)cs1 [A(43)] | -3% | – | – | – | – | – |
| CSc1cccc(Nc2nc(N)c(-c3nc(-c4cccc(NC(=O)c5ccccc5)c4)cs3)s2)c1 [A(46), N-{3-[4′-Amino-2′-(3-methylsulfanyl-phenylamino)-[2,5′]bithiazolyl-4-yl]-phenyl}-benzamide] | 0.9% | – | – | – | – | – |
| COc1ccc(Nc2nc(N)c(-c3nc(-c4cccc(NC(=O)c5ccccc5)c4)cs3)s2)cc1 [A(52), 4-(4′-Amino-4-(3-benzamidophenyl)-[2,5′]bithiazolyl-2′-ylamino)-methoxyphenyl] | 2% | – | – | – | – | – |
| Nc1nc(Nc2ccc(S(=O)(=O)N3CCCCC3)cc2)sc1-c1nc(-c2cccc(NC(=O)c3ccccc3)c2)cs1 [A(55), 4-(4′-Amino-4-(3-benzamidophenyl)-[2,5′]bithiazolyl-2′-ylamino)-phenylsulfonylpiperidine] | 0.1% | – | – | – | – | – |
